This note sets out measurements from US20250026769A1, “PAPD5 INHIBITORS AND METHODS OF USE THEREOF” (The Children's Medical Center Corporation, priority 2021, published 2025).

The target of the first assay is T1, rPAPD5 (Homo sapiens, UniProt Q8NDF8).
T1 construct: made in house
T1 sequence (Q8NDF8 68-698 isoform Q8NDF8-5 limits assumed): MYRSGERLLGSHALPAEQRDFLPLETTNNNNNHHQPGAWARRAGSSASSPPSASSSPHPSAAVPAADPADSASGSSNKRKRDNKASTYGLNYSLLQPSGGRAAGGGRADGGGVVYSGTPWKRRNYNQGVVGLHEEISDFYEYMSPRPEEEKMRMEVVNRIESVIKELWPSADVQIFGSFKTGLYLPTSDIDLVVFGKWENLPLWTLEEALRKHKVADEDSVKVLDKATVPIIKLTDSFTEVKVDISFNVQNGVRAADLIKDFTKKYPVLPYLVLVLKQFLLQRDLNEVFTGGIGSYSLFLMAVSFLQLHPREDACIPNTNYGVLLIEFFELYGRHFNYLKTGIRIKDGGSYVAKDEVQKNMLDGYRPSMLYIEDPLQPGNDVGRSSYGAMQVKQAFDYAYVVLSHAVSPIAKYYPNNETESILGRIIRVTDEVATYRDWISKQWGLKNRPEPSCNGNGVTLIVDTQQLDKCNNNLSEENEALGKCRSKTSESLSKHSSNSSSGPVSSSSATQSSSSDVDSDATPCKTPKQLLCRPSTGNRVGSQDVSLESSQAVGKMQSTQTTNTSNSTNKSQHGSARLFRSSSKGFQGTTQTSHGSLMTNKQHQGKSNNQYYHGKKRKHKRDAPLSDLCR
Description: differential scanning fluorimetry (DSF) binding and stabilization of rPAPD5. The following applies: 1 μM test compound (Table 2a); read-out: ΔTm at 1 μM. The method, then:
Binding and stabilization of rPAPD5 by test compounds was determined using differential scanning fluorimetry (DSF). DSF assays were performed to determine protein melting temperature using an indicator dye SYPRO orange (Thermo Fisher Scientific, S6651) diluted 1:5000 in […] of buffer containing […], […] (Jena Biosciences), 25 mM Tris-HCl, 5 mM MgCl2, 50 mM KCl. […] DMSO was used as a negative control. Each curve was an average of three measurements and Thermal Shift software (Thermo Fisher Scientific, 4466038) was used for analysis. […] The change in melting temperature (ΔTm) is in reference to the DMSO control. Referring to Table 2, “+” refers to ΔTm values below 1° C., “++” refers to ΔTm values from 1 to 5° C., and “+++” refers to ΔTm values above 5° C.
A general note: Differential scanning fluorimetry follows unfolding on heating by fluorescence.
For orientation: ΔTm means the change in melting temperature against a reference sample. Turning to `O=C(O)c1cc(Cl)ccc1Nc1c(S(=O)(=O)N2CCS(=O)(=O)CC2)cnc2ccc(Cl)cc12` [Compound 429A, 5-chloro-2-[[6-chloro-3-[(1,1-dioxo-1,4-thiazinan-4-yl)sulfonyl]-4-quinolyl]amino]benzoic acid], the shift in melting temperature (ΔTm) at 1 µM was greater than 5 °C.

The same assay, now with this note: 10 μM test compound (Table 2a); read-out: ΔTm at 10 μM.
As to `O=C(O)c1cc(Cl)ccc1Nc1c(S(=O)(=O)N2CCS(=O)(=O)CC2)cnc2ccc(Cl)cc12` [Compound 429A, 5-chloro-2-[[6-chloro-3-[(1,1-dioxo-1,4-thiazinan-4-yl)sulfonyl]-4-quinolyl]amino]benzoic acid], the ΔTm at 10 µM was greater than 5 °C.

Still in this assay, the particulars now being: 10 μM test compound; shift vs DMSO control; read-out: ΔTm (Table 2, starred: the compound was tested at 10 μM).
`Cc1cc(OCc2ccccc2)ccc1-c1ccc2ncc(S(=O)(=O)N3CCOCC3)c(Nc3ccccc3C(=O)O)c2c1` [Compound 176A, 2-[[6-(4-benzyloxy-2-methyl-phenyl)-3-morpholinosulfonyl-4-quinolyl]amino]benzoic acid]: the ΔTm at 10 µM was less than 1 °C.

Still in this assay, the particulars now being: 100 μM test compound; shift vs DMSO control; read-out: ΔTm at 100 μM.
For the compound `O=C(O)c1ccccc1Nc1c(S(=O)(=O)N2CCOCC2)cnc2ccc(-c3cncc4[nH]ccc34)cc12` [Compound 160A, 2-[[3-morpholinosulfonyl-6-(1H-pyrrolo[2,3-c]pyridin-4-yl)-4-quinolyl]amino]benzoic acid], the ΔTm at 100 µM was greater than 5 °C.
The same measure, in the same setting: then `O=C(O)c1ccccc1Nc1c(S(=O)(=O)N2CCNCC2)cnc2ccc(Cl)cc12` [Compound 123A], with greater than 5 °C.
In the case of `O=C(O)c1ccccc1Nc1c(S(=O)(=O)N2CCOCC2)cnc2ccc(-c3cnn4cccnc34)cc12` [Compound 149A], the shift in melting temperature (ΔTm) at 100 µM lay within 1 to 5 °C.
Take `O=C(O)c1cc(F)ccc1Nc1c(-c2ncco2)cnc2ccc(Cl)cc12` [Compound 300A, 2-[(6-chloro-3-oxazol-2-yl-4-quinolyl)amino]-5-fluoro-benzoic acid]: the ΔTm at 100 µM is greater than 5 °C.
Turning to `O=C(O)c1ccc(Cl)cc1Nc1c(S(=O)(=O)N2CCOCC2)cnc2ccc(Cl)cc12` [Compound 274A, 4-chloro-2-[(6-chloro-3-morpholinosulfonyl-4-quinolyl)amino]benzoic acid], the thermal shift (ΔTm) at 100 µM is greater than 5 °C.
Consider `O=C(O)c1ccccc1Nc1c(S(=O)(=O)N2CCOCC2)cnc2ccc(NC3CCNCC3)cc12` [Compound 239A, 2-[[3-morpholinosulfonyl-6-(4-piperidylamino)-4-quinolyl]amino]benzoic acid], for which the ΔTm at 100 µM was in the range of 1 to 5 °C.
Turning to `O=C(O)c1ccccc1Nc1c(S(=O)(=O)NC2CCC(F)(F)CC2)cnc2ccc(Cl)cc12` [Compound 217A, 2-[[6-chloro-3-[(4,4-difluorocyclohexyl)sulfamoyl]-4-quinolyl]amino]benzoic acid], the ΔTm at 100 µM was greater than 5 °C.
As for `CCCc1ccc(Nc2c(S(=O)(=O)N3CCOCC3)cnc3ccc(Cl)cc23)c(C(=O)O)c1` [Compound 319A, 2-[(6-chloro-3-morpholinosulfonyl-4-quinolyl)amino]-5-propyl-benzoic acid], the ΔTm at 100 µM was 1 to 5 °C.
In the case of `O=C(O)c1cccc(O)c1Nc1c(S(=O)(=O)N2CCOCC2)cnc2ccc(Cl)cc12` [Compound 279A, 2-[(6-chloro-3-morpholinosulfonyl-4-quinolyl)amino]-3-hydroxy-benzoic acid], the shift in melting temperature (ΔTm) at 100 µM was 1 to 5 °C.
Same read-out and setting: as for `O=C(O)c1ccccc1Nc1c(C2=CCS(=O)(=O)CC2)cnc2ccc(Cl)cc12` [Compound 208A-INT, 2-[[6-chloro-3-(1,1-dioxo-3,6-dihydro-2H-thiopyran-4-yl)-4-quinolyl]amino]benzoic acid], the figure is 1 to 5 °C.
On the same count and under the same terms, as for `Cc1cccc(C(=O)O)c1Nc1c(S(=O)(=O)N2CCOCC2)cnc2ccc(Cl)cc12` [Compound 283A, 2-[(6-chloro-3-morpholinosulfonyl-4-quinolyl)amino]-3-methyl-benzoic acid], the figure is greater than 5 °C; as for `O=C(O)c1ccccc1Nc1c(S(=O)(=O)N2CCC(F)(F)CC2)cnc2ccc(OC(F)(F)F)cc12` [Compound 132A], greater than 5 °C; as for `N#Cc1csc(-c2ccc3ncc(S(=O)(=O)N4CCOCC4)c(Nc4ccccc4C(=O)O)c3c2)c1` [Compound 139A], 1 to 5 °C.
Consider `O=C(O)c1ccccc1Nc1c(S(=O)(=O)N2CCOCC2)cnc2ccc(-c3cncnc3)cc12` [Compound 154A, 2-[(3-morpholinosulfonyl-6-pyrimidin-5-yl-4-quinolyl)amino]benzoic acid], for which the ΔTm at 100 µM is greater than 5 °C.
In the case of `O=C(O)c1ccccc1Nc1c(S(=O)(=O)N2CCOCC2)cnc2ccc(Nc3ncco3)cc12` [Compound 241A, 2-[[3-morpholinosulfonyl-6-(oxazol-2-ylamino)-4-quinolyl]amino]benzoic acid], the shift in melting temperature (ΔTm) at 100 µM was greater than 5 °C.
Consider `O=C(O)c1ccccc1Nc1c(-c2cnoc2)cnc2ccc(Cl)cc12` [Compound 212A, 2-[(6-chloro-3-isoxazol-4-yl-4-quinolyl)amino]benzoic acid], for which the ΔTm at 100 µM lay in the range of 1 to 5 °C.
For the compound `O=C(O)c1cc(O)ccc1Nc1c(S(=O)(=O)N2CCOCC2)cnc2ccc(Cl)cc12` [Compound 265A, 2-[(6-chloro-3-morpholinosulfonyl-4-quinolyl)amino]-5-hydroxy-benzoic acid], the shift in melting temperature (ΔTm) at 100 µM was greater than 5 °C.
For `O=C(O)c1ccccc1Nc1c(C2CCNCC2)cnc2ccc(Cl)cc12` [Compound 206A, 2-[[6-chloro-3-(4-piperidyl)-4-quinolyl]amino]benzoic acid], the ΔTm at 100 µM is greater than 5 °C.
Same read-out and setting: as for `O=C(O)c1ccc(F)cc1Nc1c(S(=O)(=O)N2CCOCC2)cnc2ccc(Cl)cc12` [Compound 275A, 2-[(6-chloro-3-morpholinosulfonyl-4-quinolyl)amino]-4-fluoro-benzoic acid], the figure is greater than 5 °C; as for `O=C(O)c1ccccc1Nc1c(C2=CCSCC2)cnc2ccc(Cl)cc12` [Compound 299A, 2-[[6-chloro-3-(3,6-dihydro-2H-thiopyran-4-yl)-4-quinolyl]amino]benzoic acid], greater than 5 °C; as for `Cn1ncc2ccc(-c3ccc4ncc(S(=O)(=O)N5CCOCC5)c(Nc5ccccc5C(=O)O)c4c3)cc21` [Compound 177A, 2-[[6-(1-methylindazol-6-yl)-3-morpholinosulfonyl-4-quinolyl]amino]benzoic acid], 1 to 5 °C.
In the case of `O=C(O)c1ccccc1Nc1c(S(=O)(=O)N2CCOCC2)cnc2ccc(-c3ccc(Oc4ccccc4)nc3)cc12` [Compound 162A, 2-[[3-morpholinosulfonyl-6-(6-phenoxy-3-pyridyl)-4-quinolyl]amino]benzoic acid], the ΔTm at 100 µM is 1 to 5 °C.
`O=C(O)c1cccc(Br)c1Nc1c(S(=O)(=O)N2CCOCC2)cnc2ccc(Cl)cc12` [Compound 282A, 3-bromo-2-[(6-chloro-3-morpholinosulfonyl-4-quinolyl)amino]benzoic acid]: the thermal shift (ΔTm) at 100 µM is greater than 5 °C.
`CC(=O)NS(=O)(=O)c1ccc2ncc(S(=O)(=O)N3CCOCC3)c(Nc3ccccc3C(=O)O)c2c1` [Compound 235A, 2-[[6-(acetylsulfamoyl)-3-morpholinosulfonyl-4-quinolyl]amino]benzoic acid]: the ΔTm at 100 µM lay within 1 to 5 °C.
The same measure, in the same setting: as for `NS(=O)(=O)c1ccc(Nc2c(S(=O)(=O)N3CCOCC3)cnc3ccc(Cl)cc23)c(C(=O)O)c1` [Compound 290A, 2-[(6-chloro-3-morpholinosulfonyl-4-quinolyl)amino]-5-sulfamoyl-benzoic acid], the figure is less than 1 °C.
For `O=C(O)c1c(F)cccc1Nc1c(S(=O)(=O)N2CCOCC2)cnc2ccc(Cl)cc12` [Compound 125A], the shift in melting temperature (ΔTm) at 100 µM was 1 to 5 °C.
On to `O=C(O)c1cc(Cl)ccc1Nc1c(S(=O)(=O)N2CCS(=O)(=O)CC2)cnc2ccc(Cl)cc12` [Compound 429A, 5-chloro-2-[[6-chloro-3-[(1,1-dioxo-1,4-thiazinan-4-yl)sulfonyl]-4-quinolyl]amino]benzoic acid], for which the shift in melting temperature (ΔTm) at 100 µM is greater than 5 °C.
The same measure, in the same setting: as for `O=C(O)c1ccccc1Nc1c(S(=O)(=O)N2CCOCC2)cnc2ccc(B(O)O)cc12` [Compound 321A, 2-[(6-borono-3-morpholinosulfonyl-4-quinolyl)amino]benzoic acid], the figure is less than 1 °C.
